According to patent US8637038B2, “Methods for inhibiting allograft rejection” (Rigel Pharmaceuticals, Inc., priority 2011, dated 2014):
Like-named read-outs stand apart in the source and are kept apart here.

Legend:
JAK1/3 = test: IL-2-dependent human primary T cell proliferation; type: cell-based
Method: (§1) The activity of Compound III and Compound I was assessed in a panel of cell-based assays. Compound III and Compound I are selective inhibitors of JAK1/3-dependent signaling. Data for a non-selective JAK inhibitor (Compound IV) is shown for reference. Mixed lymphocyte reactions (MLRs) were performed by incubating freshly prepared naive human peripheral blood lymphocytes from one donor with CD80+/CD86+ mature Dendritic Cells derived from a different donor for 5 days. The percentage of CD3+/CD71+ (anti-CD3-APC, Clone HIT3a, anti-CD 71-FITC, Clone M-A712; BD Biosciences, San Jose, Calif.) proliferating cells was assessed by fluorescence-activated cell sorting (FACS; BD Bioscience). Interleukin-2 (IL-2)-dependent human primary T cell proliferation was assessed using CellTiter-Glo® Luminescent Cell Viability Assay (Promega, Madison, Wis.). STAT phosphorylation induced by different cytokines in human primary T cells was measured by intracellular FACS analysis (anti-pY694-STAT5 AlexaFluor488, anti-pY701-STAT1 AlexaFluor488, and anti-pY693-STAT4 AlexaFluor488; BD Biosciences). […] Interferon-γ (IFN-γ) signaling was assessed in the U937 monocytic cell line by measuring ICAM-1 surface expression by FACS (ICAM-1-APC, BD Bioscience).

[1] = test system: Lew recipients of heterotopic BN heart transplants; test: Five-day heart allograft study: H+E histology, ISHLT rejection classification; type: in vivo, rat; conditions: HD (Compound I 60 mg/kg BID, Compound III 20 mg/kg BID, Tac 4 mg/kg QD); five days after transplantation
Description: Male Brown Norway (BN) and Lewis (Lew) rats weighing 350 g were purchased from Harlan (Indianapolis, Ind.) and were housed under conventional conditions. All animals were fed standard rat chow and water ad libitum and received humane care in compliance with the Principles of Laboratory Animal Care formulated by the National Society for Medical Research and the Guide for the care and Use of Laboratory Animals published by the National Institutes of Health (National Institutes of Health publication No. 85-23, revised 1985). Allogeneic (BN-to-Lew) and syngeneic (Lew-to-Lew) heterotopic heart transplantations were performed as described previously (Ono et al., J. Thorac. Cardiovasc. Surg. 57:225-229, 1969). In brief, rats were anaesthetized using 2% isoflurane. The donor received an intravenous bolus of 500 I.U. heparin. Cardiac arrest was achieved using 20 ml Bretschneider solution (Custodiol, Dr. F. Koehler Chemie, Bensheim, Germany). […] Heart-beating score was assessed directly after transplantation for each animal from score 0 (no palpable contraction) to 4 (strong and regular contraction). Only animals with beating scores of 4 were included into the study. Compound I and Compound III were provided by Rigel (South San Francisco, Calif.) and Tacrolimus was provided by Astellas (Munich, Germany). All drugs were administrated orally each in two different concentrations: Compound I LD (15 mg/kg BID; n=6) and HD (60 mg/kg BID; n=6); […] Administration of all drugs was performed every day at the same time points. Tacrolimus was applied only once a day (QD) every 24 hours. During administration of Compound I (BID) and Compound III (BID) a 12 hour pause was kept in between each drug application. Lew recipients of heterotopic BN heart transplants were randomly assigned to their group. […] An untreated syngeneic transplant group Lew-Lew was generated as control. Grafts were recovered five days after transplantation and fixed in 4% paraformaldehyde (Science Services, Munich, Germany), dehydrated and embedded in paraffin. […] Waldeck, Carl Roth GmbH, Munster, Germany) and examined by standard light microscopy. The extent of acute cardiac graft rejection in H+E staining was examined by an experienced pathologist according to the 2004 ISHLT working formulation (Stewart et al., J. Heart Lung Transplant. 24:1710-1720, 2005).

[2] = test system: H1299 lung carcinoma cells; test: H1299 proliferation; type: cell-based; conditions: Homo sapiens
Method: The erythropoietin (EPO)-dependent survival of cultured human erythroid progenitor cells (CHEPs) was determined using CellTiter-Glo® Luminescent Cell Viability Assay (Promega). Human primary T cell activation was assessed by measuring IL-2 production by ELISA (R&D Systems, Minneapolis, Minn., USA) following plate-bound anti-CD3 and anti-CD28 stimulation (Anti-Human CD3; BD Biosciences; Anti-Human CD28; Immunotech; Prague, Czech Republic). The enzymatic activity of tryptase released by human cultured mast cells (CHMCs) upon stimulation with IgE was quantified by cleavage of the synthetic fluorescent peptide substrate Z-Ala-Lys-Arg-7-amino-4-methylcoumarin (MP Biomedicals, Solon, Ohio, USA) in tryptase buffer. B-cell receptor-dependent Erk phosphorylation was measured in Ramos cells by intracellular FACS (anti-pT202/pY204-ERK1/2-AlexaFluor488; BD Biosciences). Cell proliferation assays were performed using A549 epithelial cells and H1299 lung carcinoma cells using nuclear staining to measure cell numbers (4′6-diamidino-2-phenylindole, dihydrochloride (DAPI; Invitrogen, Darmstadt, Germany)).

JAK1/Tyk2 = test: IFN-γ whole blood lymphocytes phospho-STAT1; type: cell-based; conditions: Lymphocyte, read-out: IFN-γ whole blood lymphocytes phospho-STAT1 EC50
Method: as §1

EGFR = target: T1, EGFR (Homo sapiens, UniProt P00533); test: EGF HeLa phospho-EGFR; type: cell-based
T1 construct: Growth factor-dependent protein phosphorylation was detected in HeLa cells; endogenous in cells; host or cells: HeLa
T1 sequence (P00533 25-1210): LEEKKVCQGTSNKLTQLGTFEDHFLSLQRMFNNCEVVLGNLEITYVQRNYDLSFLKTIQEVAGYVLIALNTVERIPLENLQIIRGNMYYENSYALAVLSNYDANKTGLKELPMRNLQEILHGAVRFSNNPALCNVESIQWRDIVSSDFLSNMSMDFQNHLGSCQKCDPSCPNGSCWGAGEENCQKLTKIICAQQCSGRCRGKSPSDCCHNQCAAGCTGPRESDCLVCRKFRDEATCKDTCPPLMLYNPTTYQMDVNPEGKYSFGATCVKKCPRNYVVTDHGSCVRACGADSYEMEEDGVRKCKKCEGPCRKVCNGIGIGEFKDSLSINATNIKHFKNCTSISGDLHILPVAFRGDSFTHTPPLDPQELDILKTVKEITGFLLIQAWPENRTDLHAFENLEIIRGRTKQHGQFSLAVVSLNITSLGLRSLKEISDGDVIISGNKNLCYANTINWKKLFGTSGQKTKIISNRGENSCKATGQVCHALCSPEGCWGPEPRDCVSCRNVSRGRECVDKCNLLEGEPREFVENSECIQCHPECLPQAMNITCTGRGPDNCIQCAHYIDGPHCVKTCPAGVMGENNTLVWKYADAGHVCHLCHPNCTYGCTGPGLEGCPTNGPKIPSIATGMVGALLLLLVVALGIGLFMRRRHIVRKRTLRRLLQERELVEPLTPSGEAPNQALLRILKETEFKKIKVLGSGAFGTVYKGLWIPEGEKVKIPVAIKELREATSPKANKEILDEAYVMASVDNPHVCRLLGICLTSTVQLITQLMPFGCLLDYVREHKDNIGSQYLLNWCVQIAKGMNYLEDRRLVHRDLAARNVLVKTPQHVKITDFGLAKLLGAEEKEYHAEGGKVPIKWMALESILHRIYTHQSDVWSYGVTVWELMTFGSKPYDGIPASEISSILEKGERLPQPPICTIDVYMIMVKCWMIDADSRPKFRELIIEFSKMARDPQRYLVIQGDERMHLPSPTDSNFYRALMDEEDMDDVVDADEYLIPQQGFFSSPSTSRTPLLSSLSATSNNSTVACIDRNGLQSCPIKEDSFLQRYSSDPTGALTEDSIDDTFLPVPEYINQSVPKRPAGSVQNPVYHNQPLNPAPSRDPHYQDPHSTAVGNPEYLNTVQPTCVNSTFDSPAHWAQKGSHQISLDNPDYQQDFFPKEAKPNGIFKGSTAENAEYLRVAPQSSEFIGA
Method: Growth factor-dependent protein phosphorylation was detected in HeLa cells by staining permeabilized cells with phospho-specific antibodies and quantified by chemiluminescence (Luminator, Wallac Multilabel Counter; Perkin Elmer). Akt phosphorylation was measured following insulin stimulation and EGFR phosphorylation was measured following EGF stimulation (Phospho-AKT, Cell signaling technology, Danvers, Mass.; 1 μM Insulin, Millipore, Billerica, Mass.; Phospho-EGFR, tyr1173, clone 53A3, Cell Signaling Technology; 200 ng/ml recombinant human EGF, PeproTech, Hamburg, Germany). Human umbilical vein endothelial cells (HUVECs) were stimulated with VEGF and VEGFR2 phosphorylation was assessed by ELISA (100 ng/ml VEGF165, R&D Systems; Rabbit anti-phospho-VEGFR2 mAb, Cell Signaling Technology).

Compound | EC50 (JAK1/3; upstream kinases JAK1/3, read-out: IL-2 T cell proliferation EC50) [nM] | hearts with ISHLT score of 0 [1] [%] | hearts with ISHLT score of 1 [1] [%] | hearts with ISHLT score of 2 [1] [%] | hearts with ISHLT score of 3 [1] | EC50 ([2]; NCI-H1299, upstream kinases Multiple, read-out: H1299 proliferation EC50) [nM] | EC50 (JAK1/Tyk2; whole blood, JAK1/Tyk2) [nM] | EGF HeLa phospho-EGFR EC50 (EGFR) | EC50 (JAK1/3; read-out: IL-2 T cell proliferation EC50) [nM] | EC50 ([2]; NCI-H1299, read-out: H1299 proliferation EC50) [nM] | EC50 (JAK1/Tyk2) [nM]
COc1cc(Nc2ncc(C)c(Nc3ccc4oc(=O)[nH]c4c3)n2)cc(C)c1F [Compound I, 5-(2-(4-fluoro-3-methoxy-5-methylphenylamino)-5-methylpyrimidin-4-ylamino)benzo[d]oxazol-2(3H)-one] | 21 ± 7 | 17 | 50 | 17 | 17% | 3430 ± 1310 | 153 ± 33 | Inactive | – | – | –
COc1cc(Nc2ncc(C)c(Nc3ccc4oc(=O)[nH]c4c3)n2)cc(C)c1C [Compound III, 5-(2-(3-methoxy-4,5-dimethylphenylamino)-5-methylpyrimidin-4-ylamino)benzol[d]oxazol-2-(3H)-one] | – | 33 | 50 | 17 | no scores of 3 | – | – | Inactive | 30 ± 13 | 5080 ± 1820 | 511 ± 279
